Laboratory results from patent US9375004B2 (Bayer Intellectual Property GmbH, priority 2010, dated 2016).
“And” between values parts separate entries of the source, which are not always exact repeats. Identical values can stand only once. Like-named read-outs stand apart in the source and are kept apart here.

Assays:
Phakopsora pachyrhizi = assay: Phakopsora test (soybeans)/protective; type: in vivo; settings: 250 ppm, protective, evaluated 11 days after inoculation
[1] = test system: Fusarium nivale (var. majus); assay: Fusarium nivale (var. majus)-test (wheat)/preventive; settings: preventive, evaluated 5 days after inoculation
Procedure: Fusarium Nivale (Var. Majus)-Test (Wheat)/Preventive
Solvent: 49 parts by weight of N,N-dimethylacetamide
(§1) Emulsifier: 1 part by weight of alkylaryl polyglycol ether
After the spray coating has been dried, the plants are slightly injured by using a sandblast and afterwards they are sprayed with a conidia suspension of Fusarium nivale (var. majus).
The plants are placed in the greenhouse under a translucent incubation cabinet at a temperature of approximately 10° C. and a relative atmospheric humidity of approximately 100%.
The test is evaluated 5 days after the inoculation.

Botrytis cinerea = assay: Botrytis test (beans)/preventive; settings: 100 ppm, preventive, lesion size 2 days after inoculation
Procedure: Botrytis Test (Beans)/Preventive
(§2) Solvent: 24.5 parts by weight of acetone • 24.5 parts by weight of N,N-dimethylformamide
as §1
After the spray coating has dried on, 2 small pieces of agar covered with growth of Botrytis cinerea are placed on each leaf. The inoculated plants are placed in a darkened chamber at 20° C. and a relative atmospheric humidity of 100%.
2 days after the inoculation, the size of the lesions on the leaves is evaluated.

Alternaria solani = assay: Alternaria test (tomato)/preventive; type: in vivo; settings: 500 ppm, preventive, evaluated 7 days after inoculation
Uromyces appendiculatus = settings: 100 ppm, beans, preventive, evaluated 10 days after inoculation
Puccinia triticina = assay: Puccinia triticina-test (wheat)/preventive; type: in vivo; settings: 500 ppm, preventive, evaluated 8 days after inoculation
Septoria tritici = assay: Septoria tritici-test (wheat)/preventive; type: in vivo; settings: 500 ppm, preventive, evaluated 21 days after inoculation
Venturia inaequalis = assay: Venturia test (apples)/preventive; settings: 100 ppm, preventive, evaluated 10 days after inoculation
Procedure: Venturia Test (Apples)/Preventive
as §2, §1
After the spray coating has dried on, the plants are inoculated with an aqueous conidia suspension of the causal agent of apple scab (Venturia inaequalis) and then remain for 1 day in an incubation cabinet at approximately 20° C. and a relative atmospheric humidity of 100%.
The plants are then placed in a greenhouse at approximately 21° C. and a relative atmospheric humidity of approximately 90%.
The test is evaluated 10 days after the inoculation.

Sphaerotheca fuliginea = assay: Sphaerotheca test (cucumber)/preventive; type: in vivo; settings: 500 ppm, preventive, evaluated 7 days after inoculation
Pyrenophora teres = assay: Pyrenophora teres-test (barley)/preventive; type: in vivo; settings: 500 ppm, preventive, evaluated 8 days after inoculation
[2] = logP by HPLC on reversed-phase column (EEC Directive 79/831 Annex V.A8); settings: HPLC on reversed-phase column (C 18), EEC Directive 79/831 Annex V.A8
Pyricularia oryzae = type: in vivo; settings: in vivo
Rhizoctonia solani = assay: Rhizoctonia test (rice)/protective; type: in vivo; settings: 250 ppm, protective, evaluated 4 days after inoculation
Procedure: Rhizoctonia Test (Rice)/Protective
Solvent: 28.5 parts by weight of acetone
Emulsifier: 1.5 part by weight of alkylaryl polyglycol ether
1 day after the treatment, the plants are inoculated with hyphae of Rhizoctonia solani.
Evaluation is carried out 4 days after the inoculation.

Cochliobolus miyabeanus = assay: Cochliobolus test (rice)/protective; type: in vivo; settings: 250 ppm, protective, evaluated 4 days after inoculation

Compound | Efficacy (Phakopsora pachyrhizi) | Efficacy ([1]; 500 ppm) | Efficacy (Botrytis cinerea) | Efficacy (Alternaria solani) | Efficacy (Uromyces appendiculatus) | Efficacy (Puccinia triticina) | Efficacy (Septoria tritici) | Efficacy (Venturia inaequalis) | Efficacy (Sphaerotheca fuliginea) | Efficacy (Pyrenophora teres) | Efficacy ([1]; 500 ppm, listed as 47 from this invention) | logP [2] | Efficacy (Pyricularia oryzae) | Efficacy (Rhizoctonia solani) | Efficacy ([1]; 500 ppm, listed as 48 from this invention) | Efficacy (Cochliobolus miyabeanus) | Efficacy ([1]; 250 ppm) | Efficacy (Uromyces appendiculatus; listed as 105 from this invention) | protection (Pyricularia oryzae)
CC1CC(C)(C)c2cccc(NC(=O)c3c(C(F)F)nn(C)c3F)c21 (racemic) [Example 64] | 97% | 75% | 95% | 95% | 100% | 100% | 100% | 99% | 100% | 100% | – | – | – | – | – | – | – | – | –
Cn1nc(C(F)F)c(C(=O)Nc2ccccc2C2CC2C2CC2)c1Cl (single isomer, unassigned) [Example 47] | 98% | – | – | – | 100% | 100% | – | 100% | – | 100% | 86% | 3.76 | 90% | 100% | – | – | – | – | –
Cn1nc(C(F)F)c(C(=O)Nc2ccccc2C2CC2C2CC2)c1Cl (single isomer, unassigned) [Example 48] | 99% | – | – | – | 100% | 100% | – | 100% | – | 86% | – | 3.85 | – | 98% | 86% | – | – | – | –
CC(C)CCc1ccccc1NC(=O)c1c(C(F)F)nn(C)c1F [Example 7] | – | – | – | 95% | – | 100% | 88% | – | – | 100% | – | 3.60 | 97% | 100% | – | 80% | – | – | –
Cn1nc(C(F)F)c(C(=O)Nc2ccccc2CCC(C)(C)C)c1F [Example 13] | 98% | 100% | 94% | 100% | 100% | 100% | 100% | 100% | 100% | 100% | – | 3.83 | 97% | 100% | – | 85% | – | – | –
CC(CC(C)(C)C)c1ccccc1NC(=O)c1c(C(F)F)nn(C)c1F (stereo not drawn) [Example 21] | 98% | – | 100% | 95% | 100% | 100% | 100% | 100% | 95% | 95% | – | 4.04 | 85% | 100% | – | 85% | – | – | –
Cn1nc(C(F)F)c(C(=O)Nc2ccccc2OC(F)(F)C(F)C(F)(F)F)c1Cl (stereo not drawn) [Example 31] | – | – | – | 100% | – | – | – | – | 91% | – | – | 3.71 | 98% | 100% | – | 80% | – | – | –
Cn1nc(C(F)F)c(C(=O)Nc2ccccc2C2CC2C2CC2)c1F (stereo not drawn) [Example 46] | 85% | – | 99% | 100% | 100% | 100% | 89% | 100% | 94% | 100% | – | 3.67 | 96% | 97% | – | – | – | – | –
Cn1nc(C(F)F)c(C(=O)Nc2ccccc2C2CC3CCC2C3)c1F (stereo not drawn) [Example 51] | 93% | – | 100% | 95% | 100% | 71% | 80% | 100% | 96% | 100% | – | 3.78 | – | – | – | – | – | – | –
CC(C)C1C2CCC1c1c(NC(=O)c3c(C(F)F)nn(C)c3Cl)cccc12 (stereo not drawn) [Example 67] | – | 100% | 99% | – | 100% | 100% | 100% | 100% | – | 100% | – | 4.55 | 96% | 100% | – | 90% | 71% | – | –
Cn1nc(C(F)F)c(C(=O)Nc2ccc(F)cc2-c2ccc(Cl)cc2)c1Cl [Example 83] | 94% | – | 100% | 94% | 100% | – | – | 100% | 100% | – | – | 3.76 | – | – | – | – | – | – | –
Cn1nc(C(F)F)c(C(=O)Nc2ccc(F)cc2-c2ccc(Cl)cc2)c1F [Example 84] | 80% | – | 99% | 94% | 99% | – | – | 100% | – | – | – | 3.46 | – | – | – | – | – | – | –
Cn1nc(C(F)F)c(C(=O)Nc2ccc(F)cc2-c2ccc(Cl)c(F)c2)c1Cl [Example 98] | – | 86% | 100% | – | 100% | 100% | – | 100% | – | 100% | – | 3.74 | – | 100% | – | 93% | – | – | –
Cn1nc(C(F)F)c(C(=O)Nc2ccccc2-c2ccc(Cl)c(F)c2)c1Cl [Example 99] | – | 100% | 97% | – | 100% | 100% | 86% | 100% | – | 100% | – | 3.71 | – | 100% | – | 95% | – | – | –
Cn1nc(C(F)F)c(C(=O)Nc2ccccc2-c2cc(F)c(F)c(F)c2)c1Cl [Example 105] | – | 100% | 100% | – | – | 100% | – | 100% | – | 100% | – | 3.52 | – | 100% | – | 95% | – | 100% | –
Cn1nc(C(F)F)c(C(=O)Nc2ccc(F)cc2-c2ccc(Cl)c(Cl)c2)c1F [Example 116] | 85% | – | 100% | 100% | 100% | 100% | 100% | 100% | 98% | 100% | – | 3.89 | 97% and 90% | 97% | – | 90% | – | – | at least 90%
Cn1nc(C(F)F)c(C(=O)Nc2ccc(F)cc2-c2ccc(Cl)c(Cl)c2)c1Cl [Example 117] | 98% | – | 99% | – | 100% | 100% | – | 100% | – | 100% | – | 4.04 | – | – | – | – | – | – | –
Cn1nc(C(F)F)c(C(=O)Nc2ccccc2-c2ccc(Br)cc2)c1F [Example 139] | – | 93% | 100% | – | 100% | 100% | 100% | 100% | – | 100% | – | 3.56 | – | 100% | – | 95% | – | – | –
Cn1nc(C(F)F)c(C(=O)Nc2ccccc2-c2ccc(C(F)(F)F)c(F)c2)c1Cl [Example 148] | 98% | 86% | 100% | – | 100% | 100% | 100% | 100% | – | 100% | – | 3.77 | 80% | 100% | – | 95% | – | – | –
